Source: PMC9596378, “Discovery and molecular basis of subtype-selective cyclophilin inhibitors” (Nature Chemical Biology, 2022)
pIC50: −log10 of the molar value. Read-outs that look alike come from different tables or passages of the source.

Key:
CypD = CypD (Homo sapiens, UniProt P30405); assay: Chymotrypsin coupled prolyl-isomerase assay
Method: Five microliters of compound pre-dissolved in 5% DMSO/assay buffer was then added to appropriate wells and incubated at 2–3 °C for 5 min. Five microliters of 0.5 mM α-chymotrypsin from bovine pancreas (Type II, lyophilized powder, Millipore-Sigma) in 20% 1 mM HCl/Assay Buffer was then added to each well and incubated at 2–3 °C for 5 min. The plate was then quickly transferred to a FLIPR Tetra High-Throughput Cellular Screening System (Molecular Devices). Using the internal liquid handling system of the FLIPR, 1 µL 0.5 mM Suc-AAPF-AMC (Chymotrypsin Substrate II, Millipore-Sigma) dissolved in 0.55 M LiCl/2,2,2-trifluoroethanol was added to each well, which was then mixed for 5 s, followed by immediate fluorescence measurements every 1 s for 330 s using a 360–380 nm excitation LED module and a 400–460 nm emission filter. […] Raw fluorescence data was analyzed by non-linear regression analysis with Prism v.9 by fitting one-phase association curves to each well. […] Rate constants calculated for each well (s^−1) were then normalized to substrate only (no prolyl-isomerase) and enzyme + substrate only controls.

CypA = target: T1, CypA (Homo sapiens, UniProt P62937); assay: Chymotrypsin coupled prolyl-isomerase assay; format: biochemical; details: wild-type CypA; read-out: Wild-Type Cyclophilin Prolyl Isomerase Inhibition IC50 Values, CypA
T1 construct: PPIA (UniProtKB Entry P62937: residues 1–165); made in house; host or cells: E. coli BL21(DE3)
Method: (§1) Adapting a previously described protocol, with an Agilent Bravo Velocity 11 with a 384ST head, 90 µL assay buffer (25 mM HEPES pH 7.3, 100 mM NaCl, 0.01% Triton X-100) containing 5.28 nM cyclophilin was added into a flat, clear-bottom, black 384-well plate pre-chilled in a Corning CoolBox at 2–3 °C. Five microliters of compound pre-dissolved in 5% DMSO/assay buffer was then added to appropriate wells and incubated at 2–3 °C for 5 min. Five microliters of 0.5 mM α-chymotrypsin from bovine pancreas (Type II, lyophilized powder, Millipore-Sigma) in 20% 1 mM HCl/Assay Buffer was then added to each well and incubated at 2–3 °C for 5 min. The plate was then quickly transferred to a FLIPR Tetra High-Throughput Cellular Screening System (Molecular Devices). Using the internal liquid handling system of the FLIPR, 1 µL 0.5 mM Suc-AAPF-AMC (Chymotrypsin Substrate II, Millipore-Sigma) dissolved in 0.55 M LiCl/2,2,2-trifluoroethanol was added to each well, which was then mixed for 5 s, followed by immediate fluorescence measurements every 1 s for 330 s using a 360–380 nm excitation LED module and a 400–460 nm emission filter. Final concentrations of the plate include 5 nM cyclophilin, 0.25% DMSO, 25 µM α-chymotrypsin, 5 µM Suc-AAPF-AMC. Raw fluorescence data was analyzed by non-linear regression analysis with Prism v.9 by fitting one-phase association curves to each well. […] Rate constants calculated for each well (s^−1) were then normalized to substrate only (no prolyl-isomerase) and enzyme + substrate only controls. IC50 values were calculated as the value at which 50% inhibition was achieved on the non-linear regression fitted curve of each compound.

CypC = target: T2, CypC (Homo sapiens, UniProt P45877); assay: Chymotrypsin coupled prolyl-isomerase assay; format: biochemical
T2 construct: PPIC (UniProtKB Entry P45877: residues 24–212); host or cells: E. coli BL21(DE3)
Method: as §1

CypE = target: T3, CypE (Homo sapiens, UniProt Q9UNP9); assay: Chymotrypsin coupled prolyl-isomerase assay; format: biochemical; details: wild-type CypE; read-out: Wild-Type Cyclophilin Prolyl Isomerase Inhibition IC50 Values, CypE
T3 construct: PPIE (UniProtKB Entry Q9UNP9: residues 131–301); host or cells: E. coli BL21(DE3)
Method: as §1

CypG = target: T4, CypG (Homo sapiens, UniProt Q13427); assay: Chymotrypsin coupled prolyl-isomerase assay; format: biochemical; details: wild-type CypG; read-out: Wild-Type Cyclophilin Prolyl Isomerase Inhibition IC50 Values, CypG
T4 construct: PPIG (UniProtKB Entry Q13427: residues 1–179); His6 with thrombin site (pET28a LIC leader) (N); host or cells: E. coli BL21(DE3)
T4 sequence (Q13427 1-179): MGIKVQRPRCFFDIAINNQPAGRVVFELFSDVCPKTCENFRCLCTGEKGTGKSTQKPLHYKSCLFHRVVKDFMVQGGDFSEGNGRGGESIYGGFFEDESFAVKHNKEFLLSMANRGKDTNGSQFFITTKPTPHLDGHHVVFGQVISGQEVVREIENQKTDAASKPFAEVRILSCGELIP
Method: as §1

CypH = target: T5, CypH (Homo sapiens, UniProt O43447); assay: Chymotrypsin coupled prolyl-isomerase assay; format: biochemical
T5 construct: PPIH (UniProtKB Entry O43447: residues 1–177); His6 with TEV site (2BT vector leader) (N); made in house; host or cells: E. coli BL21(DE3)
Method: as §1

CypB = target: T6, CypB (Homo sapiens, UniProt P23284); assay: biochemical; details: wild-type CypB; read-out: Wild-Type Cyclophilin Prolyl Isomerase Inhibition IC50 Values, CypB
T6 construct: PPIB (UniProtKB Entry P23284: residues 34–216); His6 with TEV site (2BT vector leader) (N); made in house; host or cells: E. coli BL21(DE3)
Method: as §1

Cyp40 = Cyp40 (Homo sapiens, UniProt Q08752); assay: Chymotrypsin coupled prolyl-isomerase assay
Method: as §1

NKTR = target: T7, NKTR (Homo sapiens, UniProt P30414); assay: Chymotrypsin coupled prolyl-isomerase assay; format: biochemical
T7 construct: NKTR (UniProtKB Entry P30414: residues 7–179); host or cells: E. coli BL21(DE3)
T7 sequence (P30414 7-179): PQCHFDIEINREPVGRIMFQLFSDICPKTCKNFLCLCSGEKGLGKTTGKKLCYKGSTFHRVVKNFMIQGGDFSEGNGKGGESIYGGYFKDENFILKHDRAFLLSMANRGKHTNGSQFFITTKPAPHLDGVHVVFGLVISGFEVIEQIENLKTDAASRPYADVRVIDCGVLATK
Method: Adapting a previously described protocol[51], with an Agilent Bravo Velocity 11 with a 384ST head, 90 µL assay buffer (25 mM HEPES pH 7.3, 100 mM NaCl, 0.01% Triton X-100) containing 5.28 nM cyclophilin was added into a flat, clear-bottom, black 384-well plate pre-chilled in a Corning CoolBox at 2–3 °C. Five microliters of compound pre-dissolved in 5% DMSO/assay buffer was then added to appropriate wells and incubated at 2–3 °C for 5 min. Five microliters of 0.5 mM α-chymotrypsin from bovine pancreas (Type II, lyophilized powder, Millipore-Sigma) in 20% 1 mM HCl/Assay Buffer was then added to each well and incubated at 2–3 °C for 5 min. […] Using the internal liquid handling system of the FLIPR, 1 µL 0.5 mM Suc-AAPF-AMC (Chymotrypsin Substrate II, Millipore-Sigma) dissolved in 0.55 M LiCl/2,2,2-trifluoroethanol was added to each well, which was then mixed for 5 s, followed by immediate fluorescence measurements every 1 s for 330 s using a 360–380 nm excitation LED module and a 400–460 nm emission filter. Final concentrations of the plate include 5 nM cyclophilin, 0.25% DMSO, 25 µM α-chymotrypsin, 5 µM Suc-AAPF-AMC. Raw fluorescence data was analyzed by non-linear regression analysis with Prism v.9 by fitting one-phase association curves to each well. Analyses were halted after the calculated maximum fluorescent value owing to observed fluorescent bleaching during the sustained fluorescent plateau. Rate constants calculated for each well (s^−1) were then normalized to substrate only (no prolyl-isomerase) and enzyme + substrate only controls. IC50 values were calculated as the value at which 50% inhibition was achieved on the non-linear regression fitted curve of each compound.

PPIL1 = target: T8, PPIL1 (Homo sapiens, UniProt Q9Y3C6); assay: Chymotrypsin coupled prolyl-isomerase assay; format: biochemical; details: wild-type PPIL1; read-out: Wild-Type Cyclophilin Prolyl Isomerase Inhibition IC50 Values, PPIL1
T8 construct: PPIL1 (UniProtKB Entry Q9Y3C6: residues 1–166); made in house; host or cells: E. coli BL21(DE3)
T8 sequence (Q9Y3C6 1-166): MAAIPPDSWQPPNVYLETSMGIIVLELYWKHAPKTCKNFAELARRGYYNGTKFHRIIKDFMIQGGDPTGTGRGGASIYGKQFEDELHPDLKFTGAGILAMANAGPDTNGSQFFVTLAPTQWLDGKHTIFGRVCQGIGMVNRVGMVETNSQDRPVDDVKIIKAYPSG

PPWD1 = target: T9, PPWD1 (Homo sapiens, UniProt Q96BP3); assay: Chymotrypsin coupled prolyl-isomerase assay; format: biochemical
T9 construct: PPWD1 (UniProtKB Entry Q96BP3: residues 473–646); host or cells: E. coli BL21(DE3)
T9 sequence (Q96BP3 473-646): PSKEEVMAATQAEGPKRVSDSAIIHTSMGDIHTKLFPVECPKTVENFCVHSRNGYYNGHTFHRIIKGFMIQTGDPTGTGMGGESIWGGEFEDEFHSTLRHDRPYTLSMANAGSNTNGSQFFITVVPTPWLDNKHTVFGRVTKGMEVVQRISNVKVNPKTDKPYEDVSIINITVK

[1] = Wild-Type Cyclophilin Prolyl Isomerase Inhibition IC50 Values, CypD, wild-type CypD
[2] = wild-type CypC, read-out: Wild-Type Cyclophilin Prolyl Isomerase Inhibition IC50 Values, CypC
[3] = wild-type CypH, read-out: Wild-Type Cyclophilin Prolyl Isomerase Inhibition IC50 Values, CypH
[4] = Wild-Type Cyclophilin Prolyl Isomerase Inhibition IC50 Values, Cyp40, wild-type Cyp40
[5] = wild-type NKTR, read-out: Wild-Type Cyclophilin Prolyl Isomerase Inhibition IC50 Values, NKTR
[6] = prolyl-isomerase inhibition, 5 nM cyclophilin, read-out: IC50 PPWD1
[7] = wild-type PPWD1, read-out: Wild-Type Cyclophilin Prolyl Isomerase Inhibition IC50 Values, PPWD1
[8] = read-out: IC50 CypD, prolyl-isomerase inhibition, 5 nM cyclophilin, Suc-AAPF-AMC, mean±s.e.m. of 3 technical replicates (B52, B53, C3A wild-type: mean±s.d. of 4 independent replicates)
[9] = prolyl-isomerase inhibition, 5 nM cyclophilin, read-out: IC50 CypH
[10] = read-out: Wild-Type Cyclophilin Prolyl Isomerase Inhibition IC50 Values, Cyp40, wild-type Cyp40

T1 sequence (P62937 whole entry, the tested form may be a part): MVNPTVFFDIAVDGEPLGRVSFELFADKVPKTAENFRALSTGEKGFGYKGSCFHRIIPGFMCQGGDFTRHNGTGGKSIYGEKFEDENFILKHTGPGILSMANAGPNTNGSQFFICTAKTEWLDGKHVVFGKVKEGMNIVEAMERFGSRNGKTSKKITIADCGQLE
Chain of CypD (P30405 45-207): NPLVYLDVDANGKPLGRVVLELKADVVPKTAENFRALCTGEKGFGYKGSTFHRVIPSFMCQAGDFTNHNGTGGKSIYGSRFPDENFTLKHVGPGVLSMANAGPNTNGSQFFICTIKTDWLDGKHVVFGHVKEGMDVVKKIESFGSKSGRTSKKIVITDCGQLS
T3 sequence (Q9UNP9 131-301): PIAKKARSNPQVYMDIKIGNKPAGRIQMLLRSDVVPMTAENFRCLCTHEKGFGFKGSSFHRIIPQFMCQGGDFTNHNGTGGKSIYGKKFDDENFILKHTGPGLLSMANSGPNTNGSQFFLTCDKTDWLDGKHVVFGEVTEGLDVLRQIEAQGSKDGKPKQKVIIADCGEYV
T6 sequence (P23284 34-216): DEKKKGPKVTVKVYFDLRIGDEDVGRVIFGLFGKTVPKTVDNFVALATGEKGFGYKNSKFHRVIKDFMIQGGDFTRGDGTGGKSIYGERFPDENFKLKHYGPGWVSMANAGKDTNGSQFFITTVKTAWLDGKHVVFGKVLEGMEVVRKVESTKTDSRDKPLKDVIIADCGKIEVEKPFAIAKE
T2 sequence (P45877 24-212): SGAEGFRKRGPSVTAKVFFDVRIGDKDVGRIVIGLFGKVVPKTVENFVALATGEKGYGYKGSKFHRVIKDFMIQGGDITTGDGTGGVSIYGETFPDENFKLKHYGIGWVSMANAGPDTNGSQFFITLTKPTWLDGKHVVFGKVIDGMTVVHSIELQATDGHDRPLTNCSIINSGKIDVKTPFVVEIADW
Chain of Cyp40 (Q08752 1-183): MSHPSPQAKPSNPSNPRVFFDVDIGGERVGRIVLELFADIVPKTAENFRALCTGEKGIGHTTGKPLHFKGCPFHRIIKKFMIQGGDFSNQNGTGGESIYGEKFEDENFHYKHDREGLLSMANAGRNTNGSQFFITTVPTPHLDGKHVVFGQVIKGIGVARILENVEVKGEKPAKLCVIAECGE
T5 sequence (O43447 whole entry, the tested form may be a part): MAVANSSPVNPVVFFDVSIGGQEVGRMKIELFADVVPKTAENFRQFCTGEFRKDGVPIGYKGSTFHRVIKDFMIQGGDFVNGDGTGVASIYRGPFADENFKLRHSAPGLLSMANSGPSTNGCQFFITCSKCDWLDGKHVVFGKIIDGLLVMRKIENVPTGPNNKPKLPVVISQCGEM

| SMILES | pIC50 (CypA) | pIC50 (CypC; [2]) | pIC50 (CypE) | pIC50 (CypG) | pIC50 (CypH; [3]) | pIC50 (CypB) | pIC50 (Cyp40; [4]) | pIC50 (NKTR; [5]) | pIC50 (PPIL1) | pIC50 (PPWD1; [7]) | pIC50 (CypD; [8]) | other results |
| --- | --- | --- | --- | --- | --- | --- | --- | --- | --- | --- | --- | --- |
| NCCOCCNC(=O)C1CCNC(=O)C=CC(=O)N2CCCC(C2)C(=O)NC(Cc2ccc(C(=O)c3ccccc3)cc2)C(=O)NCc2ccccc2CC(=O)N1 (centres unmarked) [Compound A14] | 4.72 | 5.05 | 4.89 | < 4.00 | < 4.00 | 5.57 | 5.52 | < 4.00 | 5.00 | 4.00 |  | pIC50 (CypD; [1]): 5.42; pIC50 (PPWD1; [6]): ~4.00 |
| CC12CCCN(C1)C(=O)C=CC(=O)NCCC(C(=O)NCCOCCN)NC(=O)Cc1ccccc1CNC(=O)C(Cc1ccco1)NC2=O (centres unmarked) [Compound A25] | 4.80 | 5.19 | 4.85 | 5.72 | 4.62 | 6.05 | 5.59 | 5.10 | 4.96 | 4.40 |  | pIC50 (CypD; [1]): 5.44 |
| NCCOCCNC(=O)C1CCNC(=O)C=CC(=O)N2CCCC(Cc3ccccc3)(C2)C(=O)NC(Cc2ccco2)C(=O)NCc2ccccc2CC(=O)N1 (centres unmarked) [Compound A26] | 5.96 | 6.28 | 6.10 | 6.08 | 5.57 | 7.00 | 6.40 | 5.38 | 6.22 | 5.47 |  | pIC50 (CypD): 6.70; increase of CypD potency relative to JOMBt (CypD): 85 fold |
| CC(=O)c1ccc(-c2ccc(C[C@@H]3NC(=O)[C@]4(Cc5ccccc5)CCCN(C4)C(=O)/C=C/C(=O)NCC[C@@H](C(=O)NCCOCCN)NC(=O)Cc4ccccc4CNC3=O)cc2)cc1 [Compound B15] | 6.40 | 6.42 | 6.82 | 5.74 | 4.10 | 7.10 |  | 5.31 | 7.00 | 6.06 | 7.42 | preference for CypD over CypC and Cyp40 (CypD): 2- to 20 fold; pIC50 (CypH; [9]): ~4.10; pIC50 (Cyp40; [10]): 7.22 |
| NCCOCCNC(=O)[C@@H]1CCNC(=O)/C=C/C(=O)N2CCC[C@](Cc3ccccc3)(C2)C(=O)N[C@@H](Cc2ccc(-c3ccc(C(=O)O)cc3)cc2)C(=O)NCc2ccccc2CC(=O)N1 [Compound B20] | 5.51 | 4.22 | 5.80 | < 4.00 | < 4.00 | 5.70 |  | < 4.00 | 5.85 | < 4.00 | 6.52 | preference for CypD over CypC and Cyp40 (CypD): at least ninefold; pIC50 (CypC; prolyl-isomerase inhibition, 5 nM cyclophilin, read-out: IC50 CypC): ~4.22; pIC50 (Cyp40): 5.59 |
| NCCOCCNC(=O)[C@@H]1CCNC(=O)/C=C/C(=O)N2CCC[C@](Cc3ccccc3)(C2)C(=O)N[C@@H](Cc2ccc(-c3ccc(CC(=O)O)cc3)cc2)C(=O)NCc2ccccc2CC(=O)N1 [Compound B22] | 6.15 | 4.85 | 6.89 | 5.00 | 4.00 | 6.64 |  | < 4.00 | 6.22 | 4.30 | 7.40 | pIC50 (CypH; [9]): ~4.00; pIC50 (Cyp40; [10]): 6.00; pIC50 (PPWD1; [6]): ~4.30 |
| NCCOCCNC(=O)[C@@H]1CCNC(=O)/C=C/C(=O)N2CCC[C@](Cc3ccccc3)(C2)C(=O)N[C@@H](Cc2ccc(-c3ccc(/C=C/C(=O)O)cc3)cc2)C(=O)NCc2ccccc2CC(=O)N1 [Compound B24] | 8.00 | 5.82 | 8.40 | 4.96 | < 4.30 | 8.30 |  | 4.89 | 7.70 | 5.22 | 8.72 | pIC50 (Cyp40): 6.82; pIC50 (NKTR; prolyl-isomerase inhibition, 5 nM cyclophilin, read-out: IC50 NKTR): ~4.89 |
